In test [1] the target is T1, human PAI-1 (Homo sapiens, UniProt P05121). Nature of the test: Measurement of PAI-1 inhibitory activity of compound group 3 (t-PA, S-2288 chromogenic substrate; Table 4).
Description: Subsequently, tissue plasminogen activator (t-PA) (manufactured by American Diagnostica, Inc. (USA); the same applies hereinafter) adjusted to 0.3 pmol/μL was added thereto, and further incubated at 37° C. for 15 minutes.
The target of test [2] is T1, human PAI-1. As to the kind of experiment: Measurement of PAI-1 inhibitory activity of compound group 2 (t-PA, S-2288 chromogenic substrate). To be noted: PAI-1 activity of the system without compound after 30 minutes taken as 100%.
Description: Subsequently, human-derived tissue plasminogen activator (t-PA) (manufactured by American Diagnostica, Inc. (USA); the same applies hereinafter) adjusted to 0.3 pmol/μL was added thereto, and the mixture was further incubated at 37° C. for 15 minutes.
Test [3] has as its target T1, human PAI-1. Nature of the test: Measurement of PAI-1 inhibitory activity of compound group 1 (t-PA, Spectrozyme t-PA chromogenic substrate). The note with it: for activity at 2.5 µM / activity at 10 µM: read-out: PAI-1 activity %; for PAI-1 activity %: PAI-1 activity of the system without compound after 120 minutes taken as 100%.
The test system of test [4] is hematopoietic stem cells. As to the kind of experiment: Hematopoietic recovery after bone-marrow transplantation, compounds a, b, c (Experimental Example 5). The note with it: compound a 100 mg/kg oral 4 days; compounds b and c 10 mg/kg oral 6 consecutive days after bone-marrow transplantation. The format is in vivo, mice. How it is done: The procedures of Experimental Examples 4 (1) and 4 (4) were repeated using compounds b and c, instead of compound a, as a test compound.
Compound a was orally administered in an amount of 100 mg/kg for 4 consecutive days after bone-marrow transplantation. Compounds b and c were orally administered in an amount of 10 mg/kg for 6 consecutive days after bone-marrow transplantation.
Bone marrow was collected 1 and 3 weeks after bone-marrow transplantation. The total number of the whole bone-marrow cells (FIG. 9E), the proportion (%) of LSK-CD34 negative cells in the whole bone marrow (FIG. 9A), the total number of LSK-CD34 negative cells in the whole bone marrow (FIG. 9B), the proportion (%) of Lin-SLAM cells in the whole bone marrow (FIG. 9C), and the total number of Lin-SLAM cells in the whole bone marrow (FIG. 9D) were measured. The results are shown in the above-stated figures.

Test [5] addresses T1, human PAI-1. As to the kind of experiment: Measurement of PAI-1 inhibitory activity of compound group 1 (t-PA, S-2288 chromogenic substrate). To be noted: read-out: PAI-1 activity %.
Description: Subsequently, human-derived tissue plasminogen activator (t-PA) (manufactured by American Diagnostica, Inc. (USA); the same applies hereinafter) adjusted to 0.35 pmol/μL was added thereto, and the mixture was further incubated at 37° C. for 15 minutes.
Test [6] has as its system hematopoietic stem cells. As to the kind of experiment: Bone-marrow transplanted mice, compound c, G-CSF and G-CSF neutralizing antibody (Experimental Example 13). The format is in vivo. The note with it: G-CSF 150 μg/kg/day. The procedure:
Bone-marrow transplanted mice were prepared in the same manner as in Experimental Example 4, and compound c, G-CSF, and G-CSF neutralizing antibody were examined for the effects. Specifically, the bone-marrow transplanted mice were divided into 5 groups as shown below (each group: n=5) and orally administered respective test drugs.
Group 1: vehicle group (physiological saline was administered via gavage) (“v group”)
Group 2: compound c group (compound c [10 mg/kg/day] was administered via gavage) (“TM group”)
Group 3: G-CSF group (G-CSF [150 μg/kg/day] was administered via gavage) (“G group”)
Group 4: vehicle+anti-G-CSF group (physiological saline+G-CSF neutralizing antibody [500 μg/kg/day] was administered via gavage) (“v+Ab group”)
Group 5: compound c+anti-G-CSF group (compound c [500 μg/kg/day]+G-CSF neutralizing antibody [500 μg/kg/day] was administered via gavage) (“TM+Ab group”)
Concurrently with bone-marrow transplantation, administration of physiological saline (vehicle) to the vehicle group via gavage was started, and the administration continued for 5 consecutive days. Concurrently with bone-marrow transplantation, administration of compound c (10 mg/kg/day) to the compound c group via gavage was started, and the administration continued for 5 consecutive days. Concurrently with bone-marrow transplantation, subcutaneous administration of G-CSF (150 μg/kg/day) to the G-CSF group was started, and the administration continued for 5 consecutive days. Concurrently with bone-marrow transplantation, gavage administration of physiological saline and subcutaneous administration of G-CSF neutralizing antibody (R&D) (500 μg/kg/day) to the vehicle+anti-G-CSF group were started, and the administration continued for 5 consecutive days. Concurrently with bone-marrow transplantation, gavage administration of compound c (10 mg/kg/day) and intraperitoneal administration of G-CSF neutralizing antibody (R&D) (500 μg/kg/day) to the compound c+anti-G-CSF group were started, and the administration continued for 5 consecutive days.
1 week after bone-marrow transplantation, plasma and bone-marrow fluids were collected from mice of each group (v group, TM group, G group, v+Ab group, and TM+Ab group), and the G-CSF concentration (pg/ml) was measured by ELISA. The following were determined in accordance with an ordinary procedure: (B) G-CSF concentration (pg/ml) in bone-marrow fluids, (C) total number of mononucleic cells (×10E7 cell) in the bone marrow, (D) proportion (%) of LSK CD34 negative cells in the bone marrow, (E) total number of LSK CD34 negative cells in the bone marrow, (F) proportion (%) of Lin-SLAM cells in the bone marrow, and (G) total number of Lin-SLAM cells in the bone marrow.

T1 sequence (P05121 24-402): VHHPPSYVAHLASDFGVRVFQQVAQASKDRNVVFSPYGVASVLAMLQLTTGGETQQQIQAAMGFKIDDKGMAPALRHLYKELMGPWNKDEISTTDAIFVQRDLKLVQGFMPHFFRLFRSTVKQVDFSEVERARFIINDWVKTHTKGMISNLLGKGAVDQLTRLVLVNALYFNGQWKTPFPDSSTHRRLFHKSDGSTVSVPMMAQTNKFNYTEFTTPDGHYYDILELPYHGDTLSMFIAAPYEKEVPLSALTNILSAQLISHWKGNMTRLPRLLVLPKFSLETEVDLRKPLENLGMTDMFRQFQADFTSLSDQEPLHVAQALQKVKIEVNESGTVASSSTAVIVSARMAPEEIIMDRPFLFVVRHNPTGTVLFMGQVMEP

In the case of `O=C(Nc1ccc(Cl)cc1C(=O)[O-])c1cccc(-c2ccc3ncccc3c2)c1.[Na+]` [Example 65, sodium 5-chloro-2-({[3-(quinolin-6-yl)phenyl]carbonyl}amino)benzoate], the PAI-1 activity % at human PAI-1 [1] (compound concentration 20 μM) is reported as 86.0%; on human PAI-1 [1] (compound concentration 50 μM) it was 25.4%; on human PAI-1 [2] (compound 20 μM), 76.9%; on human PAI-1 [2] (compound 50 μM), 10.8%. For the same molecule, the activity at 2.5 µM on human PAI-1 [3] stood at 71.7%. On human PAI-1 [3], the activity at 10 µM was 0.4%.
For `O=C(COc1ccc(-c2ccccc2)cc1)Nc1ccc(-c2ccoc2)cc1C(=O)O` [Example 46], the PAI-1 activity % on human PAI-1 [1] (compound concentration 20 μM) is reported as 83.9%; on human PAI-1 [1] (compound concentration 50 μM), 47.3%; on human PAI-1 [2] (compound 20 μM), 85.4%; on human PAI-1 [2] (compound 50 μM), 8.4%; at human PAI-1 [3] (compound 2.5 μM) it was 69.9%; at human PAI-1 [3] (compound 10 μM) it was 0.4%.
As to `O=C(COc1cccc(-c2ccccc2)c1)Nc1ccc(-c2ccccc2)cc1C(=O)O` [Example 45], the PAI-1 activity % at human PAI-1 [1] (compound concentration 20 μM) came out at 47.8%; on human PAI-1 [1] (compound concentration 50 μM), 8.4%; on human PAI-1 [2] (compound 20 μM) it was 79.6%; at human PAI-1 [2] (compound 50 μM) it was 7.7%; on human PAI-1 [3] (compound 2.5 μM) it was 76.9%; at human PAI-1 [3] (compound 10 μM) it was 0.9%.
`O=C(Nc1cccc(-c2ccoc2)c1)C(=O)Nc1ccc(Cl)cc1C(=O)O` [Example 45 (compound group 3), 5-chloro-2-{[{[3-(furan-3-yl)phenyl]amino}(oxo)acetyl]amino}benzoic acid]: in the test with hematopoietic stem cells [4], the “frequency of hematopoietic stem cells” value is on record as “increase” and the “self-renewal capacity of hematopoietic stem cells” value is on record as “enhance”.
Turning to `O=C(Nc1ccc(Cl)cc1C(=O)[O-])c1cccc(-c2ccncc2)c1.[Na+]` [Example 8, sodium 5-chloro-2-({[3-(pyridin-4-yl)phenyl]carbonyl}amino)benzoate], the PAI-1 activity % at human PAI-1 [1] (compound concentration 20 μM) was 95.6%; on human PAI-1 [1] (compound concentration 50 μM) it was 12.4%; at human PAI-1 [2] (compound 50 μM), 12.9%; on human PAI-1 [2] (compound 100 μM), 9.3%. On human PAI-1 [3], the activity at 2.5 µM came out at 100%. The activity at 10 µM on human PAI-1 [3] is 28.5%.
Consider `O=C(Nc1ccc(Cl)cc1C(=O)[O-])c1cccc(-c2cncc3ccccc23)c1.[Na+]` [Example 64, sodium 5-chloro-2-({[3-(isoquinolin-4-yl)phenyl]carbonyl}amino)benzoate], for which the PAI-1 activity % on human PAI-1 [1] (compound concentration 20 μM) is 71.6%; at human PAI-1 [1] (compound concentration 50 μM) it was 19.2%; on human PAI-1 [2] (compound 20 μM) it was 62.7%; on human PAI-1 [2] (compound 50 μM) it was 7.5%. Further, the activity at 2.5 µM on human PAI-1 [3] was determined as 74.3%. Further, on human PAI-1 [3], the activity at 10 µM turned out to be 0.7%.
Consider `O=C(Nc1ccc(Cl)cc1C(=O)[O-])c1ccc(-c2cccc3cccnc23)cc1.[Na+]` [Example 67, sodium 5-chloro-2-({[4-(quinolin-8-yl)phenyl]carbonyl}amino)benzoate], for which the PAI-1 activity % at human PAI-1 [1] (compound concentration 20 μM) was 57.6%; on human PAI-1 [1] (compound concentration 50 μM) it was 8.1%; at human PAI-1 [2] (compound 20 μM), 99.8%; on human PAI-1 [2] (compound 50 μM) it was 75.0%. In addition, the activity at 2.5 µM on human PAI-1 [3] was 90.4%. Moreover, the activity at 10 µM at human PAI-1 [3] was 0.6%.
As to `O=C(Nc1ccc(Cl)cc1C(=O)[O-])c1cccc(-c2cccc3cccnc23)c1.[Na+]` [Example 68, sodium 5-chloro-2-({[3-(quinolin-8-yl)phenyl]carbonyl}amino)benzoate], the PAI-1 activity % on human PAI-1 [1] (compound concentration 20 μM) is given as 20.7%; on human PAI-1 [1] (compound concentration 50 μM), 9.4%; at human PAI-1 [2] (compound 20 μM) it was 99.8%; at human PAI-1 [2] (compound 50 μM), 66.3%. The activity at 2.5 µM at human PAI-1 [3] stood at 2.4%. In addition, the activity at 10 µM at human PAI-1 [3] was determined as 2.1%.
As for `O=C(Nc1ccc(Cl)cc1C(=O)[O-])c1cccc(-c2cnc3ccccc3c2)c1.[Na+]` [Example 63, sodium 5-chloro-2-({[3-(quinolin-3-yl)phenyl]carbonyl}amino)benzoate], the PAI-1 activity % at human PAI-1 [1] (compound concentration 20 μM) is 64.3%; on human PAI-1 [1] (compound concentration 50 μM) it was 10.6%; on human PAI-1 [2] (compound 20 μM), 78.2%; at human PAI-1 [2] (compound 50 μM), 21.4%. Besides, the activity at 2.5 µM on human PAI-1 [3] is 21.3%. In addition, the activity at 10 µM on human PAI-1 [3] amounted to 0.3%.
For the molecule `CC(C(=O)Nc1ccc(Cl)cc1C(=O)O)(c1ccccc1)c1ccccc1` [Example 39], the PAI-1 activity % on human PAI-1 [1] (compound concentration 20 μM) is listed as 64.3%; at human PAI-1 [1] (compound concentration 50 μM), 6.9%; at human PAI-1 [2] (compound 100 μM), 36.1%; on human PAI-1 [3] (compound 2.5 μM), 88.6%; on human PAI-1 [3] (compound 10 μM), 22.1%.
For `O=C([O-])c1cc(Cl)ccc1NC(=O)C1CCCN(C(=O)c2cccc(-c3ccoc3)c2)C1.[Na+]` (centres unmarked) [Example 11, sodium 5-chloro-2-{[(1-{[3-(furan-3-yl)phenyl]carbonyl}piperidin-3-yl)carbonyl]amino}benzoate], the activity at 20 µM on human PAI-1 [5] was 68.2%. Besides, the activity at 50 µM on human PAI-1 [5] amounted to 26.1%. Besides, the PAI-1 activity % stood at 64.7% at human PAI-1 [1] (compound concentration 20 μM), 11.5% on human PAI-1 [1] (compound concentration 50 μM), 99.3% on human PAI-1 [2] (compound 50 μM) and 20.7% on human PAI-1 [2] (compound 100 μM).
As to `O=C(Nc1ccc(Cl)cc1C(=O)[O-])c1cccc(-c2cccc3cnccc23)c1.[Na+]` [Example 66, sodium 5-chloro-2-({[3-(isoquinolin-5-yl)phenyl]carbonyl}amino)benzoate], the PAI-1 activity % on human PAI-1 [1] (compound concentration 20 μM) worked out at 59.2%; at human PAI-1 [1] (compound concentration 50 μM), 17.7%; at human PAI-1 [2] (compound 20 μM) it was 97.7%; at human PAI-1 [2] (compound 50 μM), 13.1%. For the same molecule, the activity at 2.5 µM on human PAI-1 [3] was 22.6%. Besides, the activity at 10 µM on human PAI-1 [3] is 0.1%.

B1: G-CSF: granulocyte colony stimulating factor, administered 150 μg/kg/day (protein, UniProt P09919 31-207, looked up)
Granulocyte …: TPLGPASSLPQSFLLKCLEQVRKIQGDGAALQEKLVSECATYKLCHPEELVLLGHSLGIPWAPLSSCPSQALQLAGCLSQLHSGLFLYQGLLQALEGISPELGPTLDTLQLDVADFATTIWQQMEELGMAPALQPTQGAMPAFASAFQRRAGGVLVASHLQSFLEVSYRVLRHLAQP
On to B1, for which, in the test on hematopoietic stem cells [6] (single agents: TM (compound c) 10 mg/kg/day, G-CSF neutralizing antibody 500 μg/kg/day with vehicle, versus vehicle group), the “proportion and number of Lin-SLAM cells” value was “increased”. For the same molecule, in the test with hematopoietic stem cells [6] (single agents: compound c 10 mg/kg/day gavage, G-CSF neutralizing antibody 500 μg/kg/day with vehicle, 1 week after transplantation, versus vehicle), the “G-CSF concentration in the plasma and bone-marrow fluids” value is recorded as “significant increases”. The “proportion and number of LSK CD34 negative cells” value with hematopoietic stem cells [6] (single agents: compound c 10 mg/kg/day, G-CSF neutralizing antibody 500 μg/kg/day with vehicle, versus vehicle group) is “increased”. In the test with hematopoietic stem cells [6] (single agents: compound c 10 mg/kg/day, versus vehicle group), the “number of BM MNC” value is listed as “more increased”.

Source of the values: patent US10092537B2, “Use for PAI-1 inhibitor” (RENASCIENCE CO., LTD., priority 2013, dated 2018).
